For experiment [1], the target named is tyrosinase. Conditions: literature values, 50% reduction of enzyme activity; cited from earlier work.
The test system of experiment [2] is tyrosinase de champignon. Kind of experiment: Relative affinity by competitive binding, ultrafiltration and UPLC-MS/UV (Example 1). Conditions: equimolar ligands. As to the method: Une solution de travail de tyrosinase de champignon à 1.25 mg/mL est préparée en dissolvant de la poudre de l'enzyme lyophilisée dans 50 mM d'acétate d'ammonium, avec un pH de 7.0. L'échantillon est préparé en utilisant l'un des solvants suivants : des glycols, DMSO (diméthylsulfoxide), l'éthanol, pur ou en solution dans l'eau. La concentration dans l'échantillon des ligands initiaux est équimolaire et doit être dans la gamme de 0,75 à 1 mM. Les ligands choisis étaient des inhibiteurs connus de la tyrosinase isolés depuis des racines de murier noir (Morus nigra) : la moracénine A, moracénine B et la kuwanone C. Un échantillon de référence est préparé également en diluant l'échantillon de 10 à 20 fois dans une solution d'eau et d'un quart de volume d'acétonitrile.
• 1. Étape de préconditionnement - Des puits à membrane filtrante sont pré-conditionnées avec un volume de 500 µl d'une solution à 85% d'acétate d'ammonium et 15% d'éthanol qui est passé à travers la membrane avec une centrifugation de 14000 g pendant 60 secondes. • 2. Étape de liaison - La préparation de tyrosinase (1.25 mg/mL, 75 µL) est mélangée avec 5 µl de l'échantillon dans un tube d'Eppendorf en plastique, puis est incubée pendant 5 min. Dans ce mélange, on a 9,16 µM de tyrosinase et une gamme de 46,88 µM à 62,5 µM de ligands (moracénine A, moracénine B et kuwanone C) soit un ratio ligands/cible allant de 5,12 à 6,83. • 3. Étape de lavage - le mélange de l'enzyme et de l'échantillon est déposé dans un puits préconditionné à l'étape de préconditionnement, puis centrifugé à 14000 g jusqu'à l'élimination de l'essentiel du solvant. Les complexes enzyme-ligands restent à la surface de la membrane du filtre puis sont à nouveau suspendu dans un volume de 100 µL de la même solution à 85% d'acétate d'ammonium et 15% d'éthanol et centrifugé à 14000 g jusqu'à élimination du solvant. Cette procédure est répétée trois fois et élimine tous les composés qui ne sont pas liés à l'enzyme. • 4. Étape de séparation - Les complexes enzyme-ligands retenus dans le filtre sont à nouveau suspendus dans un volume de 10 µL d'eau ultra-pure, puis sont mélangés avec un volume de 40 µL d'acétonitrile pour dénaturer et précipiter l'enzyme et, en même temps libérer les ligands. Le mélange est centrifugé à 21000 g pendant 10 min pour séparer le précipité du surnageant. • 5. Étape d'analyse - Ledit surnageant formant la solution traitée est analysé par chromatographie en phase liquide couplée à une spectrométrie de masse, connue également par l'acronyme UPLC-MS. L'échantillon de référence est analysé également de la même manière, en utilisant les mêmes conditions d'analyse. Les affinités relatives sont calculées selon la méthode décrite ci-après. De préférence, l'échantillon de référence et la solution traitée sont analysés séquentiellement pour éliminer des dispersions dues aux réglages de l'appareillage.
Une analyse par chromatographie en phase liquide fournit un chromatogramme tel que montré par les figures 1 et 2. Le chromatogramme représente une intensité de signal en fonction du temps de rétention dans une colonne. Le signal présente différents pics d'intensité variable. Chaque pic est associé à l'un des ligands présent dans l'échantillon et la solution traitée. • 1. Normalisation de l'intensité du signal analytique pour les ligands dans l'échantillon de référence. Pour chaque chaque ligand CEi dans l'échantillon de référence, on établit des facteurs de normalisation NFeq dudit ligand CEi par comparaison au ligand de référence REF, selon l'équation suivante : NFeq,CEi = (ISeq,CEi)/(ISeq,REF) [formula] où : • NF est un facteur de normalisation; • ISeq,CEi est l'intensité du signal analytique pour le ligand CEi dans l'échantillon; • ISeq,REF est l'intensité du signal analytique pour le ligand de référence REF dans l'échantillon. L'intensité peut être choisie parmi l'aire du pic ou la valeur maximale du pic. Le facteur de normalisation du ligand de référence vaut toujours 1. • 2. […]

For experiment [3], the system named is trypsine. To be noted: 2660 µM; International Journal of Food Science & Technology 2014, 49, 1063-1069; cited from earlier work.
Experiment [4] deals with hyaluronidase de testicules bovins. Briefly: Affinity by binding, ultrafiltration and UPLC-MS (Example 5). To be noted: chromatogram B, figure 3. How it is done: (§1) Une solution de travail de hyaluronidase de testicules bovins à 5 mg/mL est préparée en dissolvant de la poudre de l'enzyme lyophilisée dans un tampon phosphate salin à 50 mM, avec un pH de 7,0. Une solution de travail de trypsine (la cible témoin) est préparée de la même manière que celle de hyaluronidase. L'échantillon est préparé en utilisant l'un des solvants suivants : des glycols, DMSO (diméthylsulfoxide), l'éthanol pur ou en solution dans l'eau. La concentration dans l'échantillon de ligand initial doit être dans la gamme de 0,75 à 1 mM. Le ligand choisi (quercétine) est un inhibiteur connu de l'hyaluronidase (Asian J. Chem. 2013, 25, 10262-10266). Un échantillon de référence est préparé également en diluant l'échantillon de 10 à 20 fois dans une solution de trois quarts de volume d'acétonitrile et d'un quart de volume d'eau. […]

For experiment [5], the system named is trypsine. Briefly: Affinity by binding, ultrafiltration and UPLC-MS, control target (Example 5). To be noted: chromatogram C, figure 3. As to the method:
as §1

In experiment [6] the test system is hyaluronidase. To be noted: 200 µM; Asian J. Chem. 2013, 25, 10262-10266; cited from earlier work.

On to moracénine A, for which the IC50 in experiment [1] is 10.3 µM. Further, in experiment [2] (NFTB, peak area UV 270 nm relative to reference ligand moracénine B), the “Facteur de normalisation, solution traitée” value is reported as 1,29. Moreover, the Affinités relatives in experiment [2] (RA = NFTB/NFeq, reference ligand moracénine B) is recorded as 1,50.
With `O=c1c(O)c(-c2ccc(O)c(O)c2)oc2cc(O)cc(O)c12` [quercétine], in experiment [3], the “inhibition de la trypsine” value is given as 46%. For the same compound, the affinité result in experiment [4] is reported as “affinité importante”; in experiment [5], “très faible affinité”. The “inhibition de l'hyaluronidase” value in experiment [6] is 54%.

Broadly, the IC50 is the midpoint of a concentration-inhibition curve.

Source of the values: EP3516395B1, “METHOD FOR DETERMINING AFFINITY BETWEEN LIGANDS AND A TARGET” (Plant Advanced Technologies Pat, priority 2016, dated 2018).
